From publication PMC9945734 (BMC Medicine, 2023)

Tested on: PC-3-KQ and PC-3-KR cells
Assay: RNA-sequencing and differential gene expression
Assay type: cell-based, human

With CC(=O)Oc1ccccc1C(=O)Nc1ncc([N+](=O)[O-])s1 [Nitazoxanide] the “SERPINA5 Change (KQ-Control vs KQ-NTZ)” value (RNA-Seq, PC-3-KQ cells) was “DOWN”, the “SERPINA5 logFC (KQ-Control vs KQ-NTZ)” value (RNA-Seq, PC-3-KQ cells) was -0.8689 and the “SERPINB3 Change (KQ-Control vs KQ-NTZ)” value (RNA-Seq, PC-3-KQ cells) was “DOWN”. The “SERPINB3 logFC (KQ-Control vs KQ-NTZ)” value (RNA-Seq, PC-3-KQ cells) was -1.6793, the “SERPINB4 Change (KQ-Control vs KQ-NTZ)” value (RNA-Seq, PC-3-KQ cells) was “DOWN” and the “SERPIND1 Change (KQ-Control vs KQ-NTZ)” value (RNA-Seq, PC-3-KQ cells) was “DOWN”. The “SERPIND1 logFC (KQ-Control vs KQ-NTZ)” value (RNA-Seq, PC-3-KQ cells) was -1.1652, the “SGK1 Change (KQ-Control vs KQ-NTZ)” value (RNA-Seq, PC-3-KQ cells) was “DOWN” and the “SGK1 logFC (KQ-Control vs KQ-NTZ)” value (RNA-Seq, PC-3-KQ cells) was -0.7813. The “SHISA3 Change (KQ-Control vs KQ-NTZ)” value (RNA-Seq, PC-3-KQ cells) was “DOWN”, the “SHISA3 logFC (KQ-Control vs KQ-NTZ)” value (RNA-Seq, PC-3-KQ cells) was -0.8421 and the “SLC22A4 Change (KQ-Control vs KQ-NTZ)” value (RNA-Seq, PC-3-KQ cells) was “DOWN”. The “SLC22A4 logFC (KQ-Control vs KQ-NTZ)” value (RNA-Seq, PC-3-KQ cells) was -0.8073, the “SLC26A9 Change (KQ-Control vs KQ-NTZ)” value (RNA-Seq, PC-3-KQ cells) was “DOWN” and the “SLC26A9 logFC (KQ-Control vs KQ-NTZ)” value (RNA-Seq, PC-3-KQ cells) was -0.6605. For the same compound, the “SLC45A2 Change (KQ-Control vs KQ-NTZ)” value (RNA-Seq, PC-3-KQ cells) was “DOWN”, the “SLC45A2 logFC (KQ-Control vs KQ-NTZ)” value (RNA-Seq, PC-3-KQ cells) was -0.7358 and the “SLITRK5 Change (KQ-Control vs KQ-NTZ)” value (RNA-Seq, PC-3-KQ cells) was “DOWN”. For the same compound, the “SLITRK5 logFC (KQ-Control vs KQ-NTZ)” value (RNA-Seq, PC-3-KQ cells) was -0.708, the “SVEP1 Change (KQ-Control vs KQ-NTZ)” value (RNA-Seq, PC-3-KQ cells) was “DOWN” and the “SVEP1 logFC (KQ-Control vs KQ-NTZ)” value (RNA-Seq, PC-3-KQ cells) was -1.4829. For the same compound, the “TCN1 Change (KQ-Control vs KQ-NTZ)” value (RNA-Seq, PC-3-KQ cells) was “DOWN”, the “TCN1 logFC (KQ-Control vs KQ-NTZ)” value (RNA-Seq, PC-3-KQ cells) was -0.7528 and the “TENM4 Change (KQ-Control vs KQ-NTZ)” value (RNA-Seq, PC-3-KQ cells) was “DOWN”. The “TENM4 logFC (KQ-Control vs KQ-NTZ)” value (RNA-Seq, PC-3-KQ cells) was -0.7441, the “TIMM8A Change (KQ-Control vs KQ-NTZ)” value (RNA-Seq, PC-3-KQ cells) was “DOWN” and the “TNF Change (KQ-Control vs KQ-NTZ)” value (RNA-Seq, PC-3-KQ cells) was “DOWN”. The “TNF logFC (KQ-Control vs KQ-NTZ)” value (RNA-Seq, PC-3-KQ cells) was -0.6786, the “TNFRSF6B Change (KQ-Control vs KQ-NTZ)” value (RNA-Seq, PC-3-KQ cells) was “DOWN” and the “TNFRSF6B logFC (KQ-Control vs KQ-NTZ)” value (RNA-Seq, PC-3-KQ cells) was -0.5861. The “TNFRSF11B Change (KQ-Control vs KQ-NTZ)” value (RNA-Seq, PC-3-KQ cells) was “DOWN”, the “TNFRSF11B logFC (KQ-Control vs KQ-NTZ)” value (RNA-Seq, PC-3-KQ cells) was -2.1243 and the “TSPAN18 Change (KQ-Control vs KQ-NTZ)” value (RNA-Seq, PC-3-KQ cells) was “DOWN”. For the same compound, the “TSPAN18 logFC (KQ-Control vs KQ-NTZ)” value (RNA-Seq, PC-3-KQ cells) was -0.7268, the “TTC30A Change (KQ-Control vs KQ-NTZ)” value (RNA-Seq, PC-3-KQ cells) was “DOWN” and the “TTC30A logFC (KQ-Control vs KQ-NTZ)” value (RNA-Seq, PC-3-KQ cells) was -0.7519. For the same compound, the “TTC30B Change (KQ-Control vs KQ-NTZ)” value (RNA-Seq, PC-3-KQ cells) was “DOWN”, the “TTC30B logFC (KQ-Control vs KQ-NTZ)” value (RNA-Seq, PC-3-KQ cells) was -0.6538 and the “XKRX Change (KQ-Control vs KQ-NTZ)” value (RNA-Seq, PC-3-KQ cells) was “DOWN”. The “XKRX logFC (KQ-Control vs KQ-NTZ)” value (RNA-Seq, PC-3-KQ cells) was -0.6274, the “ZFPM2 Change (KQ-Control vs KQ-NTZ)” value (RNA-Seq, PC-3-KQ cells) was “DOWN” and the “ZFPM2 logFC (KQ-Control vs KQ-NTZ)” value (RNA-Seq, PC-3-KQ cells) was -1.4661. The “ZNF28 Change (KQ-Control vs KQ-NTZ)” value (RNA-Seq, PC-3-KQ cells) was “DOWN”, the “ZNF28 logFC (KQ-Control vs KQ-NTZ)” value (RNA-Seq, PC-3-KQ cells) was -0.6433 and the “ZNF302 Change (KQ-Control vs KQ-NTZ)” value (RNA-Seq, PC-3-KQ cells) was “DOWN”. The “ZNF302 logFC (KQ-Control vs KQ-NTZ)” value (RNA-Seq, PC-3-KQ cells) was -1.2333, the “logFC, gene ABCB11” value (RNA-Seq, PC-3-KQ cells, KQ-Control vs KQ-NTZ, gene ABCB11) was -0.7396 and the “logFC, gene C5orf63” value (RNA-Seq, PC-3-KQ cells, KQ-Control vs KQ-NTZ, gene C5orf63) was -1.615. The “logFC, gene C11orf65” value (RNA-Seq, PC-3-KQ cells, KQ-Control vs KQ-NTZ, gene C11orf65) was -0.9307, the “logFC, gene CELF3” value (RNA-Seq, PC-3-KQ cells, KQ-Control vs KQ-NTZ, gene CELF3) was -0.8233 and the “logFC, gene LOC107985532” value (RNA-Seq, PC-3-KQ cells, KQ-Control vs KQ-NTZ, gene LOC107985532) was -0.9452. The “logFC, gene MROH8” value (RNA-Seq, PC-3-KQ cells, KQ-Control vs KQ-NTZ, gene MROH8) was -0.9801, the “logFC, gene RLN1” value (RNA-Seq, PC-3-KQ cells, KQ-Control vs KQ-NTZ, gene RLN1) was -1.0231 and the “logFC, gene RP1L1” value (RNA-Seq, PC-3-KQ cells, KQ-Control vs KQ-NTZ, gene RP1L1) was -0.9422. The “logFC, gene SAXO2” value (RNA-Seq, PC-3-KQ cells, KQ-Control vs KQ-NTZ, gene SAXO2) was -0.8856, the “logFC, gene TNFAIP8L2-SCNM1” value (RNA-Seq, PC-3-KQ cells, KQ-Control vs KQ-NTZ, gene TNFAIP8L2-SCNM1) was -0.9389 and the “logFC, gene ZNF154” value (RNA-Seq, PC-3-KQ cells, KQ-Control vs KQ-NTZ, gene ZNF154) was -0.8416. For the same compound, the “logFC, gene ZNF596” value (RNA-Seq, PC-3-KQ cells, KQ-Control vs KQ-NTZ, gene ZNF596) was -0.9026, the “Change (KQ-Control vs KQ-NTZ), gene ABCB11” value (RNA-Seq, PC-3-KQ cells, gene ABCB11) was “DOWN” and the “Change (KQ-Control vs KQ-NTZ), gene C5orf63” value (RNA-Seq, PC-3-KQ cells, gene C5orf63) was “DOWN”. The “Change (KQ-Control vs KQ-NTZ), gene C11orf65” value (RNA-Seq, PC-3-KQ cells, gene C11orf65) was “DOWN”, the “Change (KQ-Control vs KQ-NTZ), gene CELF3” value (RNA-Seq, PC-3-KQ cells, gene CELF3) was “DOWN” and the “Change (KQ-Control vs KQ-NTZ), gene LOC107985532” value (RNA-Seq, PC-3-KQ cells, gene LOC107985532) was “DOWN”. The “Change (KQ-Control vs KQ-NTZ), gene MROH8” value (RNA-Seq, PC-3-KQ cells, gene MROH8) was “DOWN”, the “Change (KQ-Control vs KQ-NTZ), gene RLN1” value (RNA-Seq, PC-3-KQ cells, gene RLN1) was “DOWN” and the “Change (KQ-Control vs KQ-NTZ), gene RP1L1” value (RNA-Seq, PC-3-KQ cells, gene RP1L1) was “DOWN”. The “Change (KQ-Control vs KQ-NTZ), gene SAXO2” value (RNA-Seq, PC-3-KQ cells, gene SAXO2) was “DOWN”, the “Change (KQ-Control vs KQ-NTZ), gene TNFAIP8L2-SCNM1” value (RNA-Seq, PC-3-KQ cells, gene TNFAIP8L2-SCNM1) was “DOWN” and the “Change (KQ-Control vs KQ-NTZ), gene ZNF154” value (RNA-Seq, PC-3-KQ cells, gene ZNF154) was “DOWN”. For the same compound, the “Change (KQ-Control vs KQ-NTZ), gene ZNF596” value (RNA-Seq, PC-3-KQ cells, gene ZNF596) was “DOWN”, the “change of NTZ treatment” value (gene AADACL3) was “down” and the “change of NTZ treatment” value (gene ABAT) was “up”. For the same compound, the “change of NTZ treatment” value (gene ADIRF) was “up”, the logFC (gene ADIRF, KQ-Control vs KQ-NTZ) was 0.6207 and the logFC (gene AKR1B1, KQ-Control vs KQ-NTZ) was 1.237. The “change of NTZ treatment” value (gene AKR1C1) was “up”, the logFC (gene AKR1C1, KQ-Control vs KQ-NTZ) was 1.37 and the “change of NTZ treatment” value (gene AKR1C3) was “up”. For the same compound, the “change of NTZ treatment” value (gene ANG) was “up” and the logFC (gene ANG, KQ-Control vs KQ-NTZ) was 1.354.
